Results as given in PubChem BioAssay (NCI).
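Compound exposure: 48 hours, 5 concentrations, 96-well plates. The concentration for full growth arrest is given as TGI.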

How the values were obtained:
Experiment in all cases: inhibition of tumour cell growth, NCI panel, 48 h
[1] = test system: MDA-MB-231 breast
[2] = test system: HCT-116 colon
[3] = test system: HOP-62 NSCLC
[4] = test system: A549 NSCLC
[5] = test system: SK-MEL-28 melanoma
[6] = test system: TK-10 renal
[7] = test system: NCI-H226 lung
[8] = test system: UACC-257 melanoma
[9] = test system: SN12C renal
[10] = test system: ACHN renal
[11] = test system: MOLT-4 leukemia
[12] = test system: SF-539 CNS
[13] = test system: SW-620 colon
[14] = test system: LOX IMVI melanoma
[15] = test system: OVCAR-8 ovarian
[16] = test system: SK-OV-3 ovarian
[17] = test system: SNB-75 CNS
[18] = test system: HCC-2998 colon
[19] = test system: T-47D breast
[20] = test system: MALME-3M melanoma
[21] = test system: SF-268 CNS
[22] = test system: SNB-19 CNS
[23] = test system: NCI/ADR-RES ovarian
[24] = test system: DU-145 prostate
[25] = test system: RXF 393 renal
[26] = test system: KM12 colon
[27] = test system: OVCAR-4 ovarian
[28] = test system: MDA-N
[29] = test system: HL-60(TB) leukemia
[30] = test system: UO-31 renal
[31] = test system: SR leukemia
[32] = test system: NCI-H522 lung
[33] = test system: A498 renal
[34] = test system: HT29 colon
[35] = test system: 786-0 renal
[36] = test system: M14 melanoma
[37] = test system: OVCAR-3 ovarian
[38] = test system: MDA-MB-435
[39] = test system: COLO 205 colon
[40] = test system: UACC-62 melanoma
[41] = test system: RPMI-8226 leukemia
[42] = test system: IGROV1 ovarian
[43] = test system: SK-MEL-5 melanoma
[44] = test system: NCI-H23 lung
[45] = test system: K-562 leukemia
[46] = test system: HOP-92 NSCLC
[47] = test system: U251 CNS
[48] = test system: MCF7 breast
[49] = test system: PC-3 prostate
[50] = test system: HCT-15 colon
[51] = test system: NCI-H460 lung
[52] = test system: SF-295 CNS
[53] = test system: CCRF-CEM leukemia
[54] = test system: EKVX NSCLC
[55] = test system: HS 578T breast
[56] = test system: OVCAR-5 ovarian
[57] = test system: SK-MEL-2 melanoma
[58] = test system: CAKI-1 renal
[59] = test system: BT-549 breast

SMILES: COC(=O)CCc1ccc2c(c1)CC1(C2)Cc2ccc3c(c2C1)CCC3 (configuration not stated)
- TGI [1]: > 100 µM
- TGI [2]: > 100 µM
- TGI [3]: > 100 µM
- TGI [4]: > 100 µM
- TGI [5]: > 100 µM
- TGI [6]: > 100 µM
- TGI [7]: > 100 µM
- TGI [8]: > 100 µM
- TGI [9]: > 100 µM
- TGI [10]: > 100 µM
- TGI [11]: > 100 µM
- TGI [12]: > 100 µM
- TGI [13]: > 100 µM
- TGI [14]: > 100 µM
- TGI [15]: > 100 µM
- TGI [16]: > 100 µM
- TGI [17]: > 100 µM
- TGI [18]: > 100 µM
- TGI [19]: > 100 µM
- TGI [20]: > 100 µM
- TGI [21]: > 100 µM
- TGI [22]: > 100 µM
- TGI [23]: > 100 µM
- TGI [24]: > 100 µM
- TGI [25]: > 100 µM
- TGI [26]: > 100 µM
- TGI [27]: > 100 µM
- TGI [28]: > 100 µM
- TGI [29]: > 100 µM
- TGI [30]: 67.5 µM
- TGI [31]: > 100 µM
- TGI [32]: > 100 µM
- TGI [33]: > 100 µM
- TGI [34]: > 100 µM
- TGI [35]: > 100 µM
- TGI [36]: > 100 µM
- TGI [37]: > 100 µM
- TGI [38]: > 100 µM
- TGI [39]: > 100 µM
- TGI [40]: > 100 µM
- TGI [41]: > 100 µM
- TGI [42]: > 100 µM
- TGI [43]: 90.9 µM
- TGI [44]: > 100 µM
- TGI [45]: > 100 µM
- TGI [46]: > 100 µM
- TGI [47]: > 100 µM
- TGI [48]: > 100 µM
- TGI [49]: > 100 µM
- TGI [50]: > 100 µM
- TGI [51]: > 100 µM
- TGI [52]: > 100 µM
- TGI [53]: > 100 µM
- TGI [54]: > 100 µM
- TGI [55]: > 100 µM

SMILES: Oc1ccc2ccccc2c1Cc1c(O)ccc2ccccc12
- TGI [1]: 40.9 µM
- TGI [56]: 33.2 µM
- TGI [2]: 34.4 µM
- TGI [3]: 41.4 µM
- TGI [4]: 39.9 µM
- TGI [5]: 40.7 µM
- TGI [6]: 48.9 µM
- TGI [7]: 45.5 µM
- TGI [8]: 48.9 µM
- TGI [9]: 34.6 µM
- TGI [10]: 33.8 µM
- TGI [11]: 36.9 µM
- TGI [12]: 42.2 µM
- TGI [13]: 39.9 µM
- TGI [57]: 41.7 µM
- TGI [14]: 38.7 µM
- TGI [58]: 33.9 µM
- TGI [15]: 36.9 µM
- TGI [16]: 35 µM
- TGI [17]: 42.2 µM
- TGI [18]: 40.6 µM
- TGI [19]: 56.4 µM
- TGI [20]: 28.9 µM
- TGI [59]: 33.6 µM
- TGI [21]: 31.1 µM
- TGI [22]: 36.7 µM
- TGI [23]: 37.4 µM
- TGI [24]: 38.1 µM
- TGI [25]: 36 µM
- TGI [26]: 43.9 µM
- TGI [27]: 30.6 µM
- TGI [28]: 28.3 µM
- TGI [29]: 38.7 µM
- TGI [30]: 32.2 µM
- TGI [32]: 26 µM
- TGI [33]: 39.4 µM
- TGI [34]: 46.5 µM
- TGI [35]: 41.7 µM
- TGI [36]: 34.9 µM
- TGI [37]: 28.4 µM
- TGI [38]: 31.5 µM
- TGI [39]: 36.5 µM
- TGI [40]: 29.4 µM
- TGI [41]: 40.4 µM
- TGI [42]: 13.4 µM
- TGI [43]: 32.1 µM
- TGI [44]: 37.8 µM
- TGI [45]: 32.8 µM
- TGI [47]: 34.4 µM
- TGI [48]: 53.9 µM
- TGI [49]: 35.1 µM
- TGI [50]: 32.7 µM
- TGI [51]: > 100 µM
- TGI [52]: 37.1 µM
- TGI [53]: 45.8 µM
- TGI [54]: 32.6 µM
- TGI [55]: 34.4 µM
